Experiment [1] deals with pVHL30 (VCB complex) (Homo sapiens, UniProt P40337). Kind of experiment: ITC titration against VCB, long VHL isoform. The experiment is classed as binding. The method, then: (§1) Titrations were performed on an ITC200 micro-calorimeter (GE Healthcare). […] The final DMSO concentration was 0.15% v/v. VBC protein experiments were carried out in a buffer containing 20 mM Bis-tris propane, 150 mM NaCl, 1 mM TCEP, 0.15% v/v DMSO, pH 7.4. The titrations consisted of 19 injections of 2 μL compounds solution (150 μM, in the syringe) at a rate of 2 s/μL at 120 s time intervals into the VCB protein solution (20 μM, in the cell). An initial injection of compound solution (0.4 μL) was made and discarded during data analysis. All experiments were performed at 25° C., whilst stirring the syringe at 600 rpm. The data were fitted to a single binding site model to obtain the stoichiometry n, the dissociation constant Kd and the enthalpy of binding ΔH using the Microcal LLC ITC200 Origin software provided by the manufacturer.
Sequence of pVHL30 (VCB complex) (P40337 whole entry, canonical isoform): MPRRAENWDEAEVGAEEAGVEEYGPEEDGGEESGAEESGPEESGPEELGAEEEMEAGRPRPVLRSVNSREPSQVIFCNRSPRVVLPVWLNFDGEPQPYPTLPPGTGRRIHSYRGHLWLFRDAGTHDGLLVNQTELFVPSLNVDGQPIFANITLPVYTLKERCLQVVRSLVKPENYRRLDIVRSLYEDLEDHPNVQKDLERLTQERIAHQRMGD
Sequence of pVHL30 (VCB complex) (Q15370 1-104 partner limits assumed): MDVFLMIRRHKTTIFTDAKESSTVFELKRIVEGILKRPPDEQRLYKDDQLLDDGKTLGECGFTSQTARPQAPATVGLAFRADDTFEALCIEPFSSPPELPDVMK
Sequence of pVHL30 (VCB complex) (Q15369 17-112 partner limits assumed): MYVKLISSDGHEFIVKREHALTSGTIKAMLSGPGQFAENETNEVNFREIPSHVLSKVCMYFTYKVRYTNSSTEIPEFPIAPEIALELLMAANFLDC

In experiment [2] the test system is HIF-dependent luciferase activity (HeLa-HRE and U2OS-HRE cells). The experiment in a line: HRE-luciferase reporter assay. The class given is cell-based, Human. To be noted: different concentrations and times. How it is done: It was performed essentially as described by Frost et al.^34 Briefly, cells (HeLa and U2OS) stably expressing an HRE-luciferase reporter were treated for the indicated times with compounds. Cells were harvested in passive lysis buffer (Promega) and subjected to three freeze-thaw cycles. The soluble lysate fraction was used for assays, performed according to the manufacturer's instructions (Promega) using a Berthold Lumat LB 9507 Luminometer. Results were normalized for protein concentration, and reported as mean±s.e.m. from three biological replicates.

Experiment [3] deals with VCB complex (Homo sapiens, UniProt P40337). The experiment in a line: Size exclusion chromatography of VCB complex formation. The class given is binding. To be noted: SEC, VCB 50 μM, compound 30 μM. How it is done:
SEC experiments were carried out in a AKTA pure system (GE Healthcare) at room temperature. The oligomeric state of the VCB complex in solution was analyzed by gel filtration in a buffer containing 20 mM Bis-Tris (pH 7), 150 mM NaCl and 1 mM 1,4-dithiothreitol (DTT) using a Superdex 200 Increase 10/300 GL column (GE Healthcare) calibrated with globular proteins of known molecular weight (GE Healthcare, 28-4038-41/42). […] Sample volume for each injection was 200 μL, and the flow rate was 0.5 mL/min. Peak elution was monitored using ultraviolet absorbance at 280 nm.

The test system of experiment [4] is HIF-1α / hydroxylated HIF-1α (Hdy-HIF-1α). Kind of experiment: Western blot of HIF-1α and Hdy-HIF-1α levels in HeLa cells. The experiment is classed as cell-based, Human. To be noted: HeLa, 1 μM, 10 h. The method, then:
For single time point treatment experiments, cells were transferred in 6-well plates with 5×10^5 cells per well in 2 ml media in order to achieve 80% confluence the following day. Stock concentrations of compounds were prepared by solubilizing the powder in 100% v/v DMSO to the final desired stock concentration.
On the day of treatment, all compound samples were prepared as 100-fold concentrated compound solution using DMEM just before treatment. The experiment samples (20 μL) were added to the 6 well plate containing 2 ml of media. The final DMSO concentration was 0.1% v/v. Cells were incubated at 37° C. and 5% CO2 for the desired time before harvesting.
For time dependent treatment, cells were transferred in 6-well plates with 3×10^5 cells per well in 2 ml media. Samples were prepared as detailed above or the single time point experiments. Treatment was conducted at given time points prior to harvest.
Cells were lysed in lysis buffer (20 mM Tris pH 8, 150 mM NaCl, 1% Triton x100) and a protease inhibitor cocktail (Roche) per 10 ml buffer. For protein extracts, the dishes were placed on ice. The media was aspirated and the tissue layer washed twice with ice-cold phosphate buffer saline (PBS). Lysis buffer (120 μl) was added and the cells detached from the surface with a cell scraper. After removal of the insoluble fraction by centrifugation, the protein concentration of the supernatant was determined by Pierce™ Coomassie (Bradford) Protein Assay Kit. Protein extracts were fractionated by SDS-PAGE on 4-12% Tris-Acetate NuPage® Novex® (Life Technologies) polyacrylamide gels and transferred to a nitrocellulose membrane using wet transfer. The membrane was then blocked with 5% w/v Bovine serum albumin (BSA) in Tris-buffered saline (TBS) with 0.1% w/v Tween-20. For detecting proteins the following primary antibodies in the given concentrations were used: anti-β-Actin (Cell Signaling Technology, 4970S, 13E5) 1:2000, anti-VHL (Cell Signaling Technology, #68547) 1:1000, anti-Hif-1α (BD Biosciences, 610959, clone 54) 1:1000, anti-hydroxy-HIF-1α (Hyp564) (Cell Signaling Techonology; #3434) 1:1000, anti-PHD2 (Bethyl Laboratories; A300-322A) 1:1000, anti-PHD3 (Bethyl Laboratories; A300-327A) 1:1000, anti-CRBN (Proteintech; 11435-1-AP) 1:1000.
Following incubation with a horseradish peroxidase-conjugated secondary antibody (Cell Signaling Technology), the signal was developed using enhanced chemiluminescence (ECL) Western Blotting Detection Kit (Amersham) on Amersham Hyperfilm ECL film (Amersham).
Band quantification was performed using ImageJ software and reported as relative amount as ratio of the each protein band relative to the lane's loading control. The values obtained were then normalized to 0.1% DMSO vehicle control.

Experiment [5] addresses pVHL19 (VCB complex: VHL with Elongin B and Elongin C) (Homo sapiens, UniProt P40337). Kind of experiment: ITC titration against VCB, short VHL isoform. The experiment is classed as binding. The method, then:
as §1

Where “and” joins values, the source holds several entries; their conditions need not be identical. Identical values can stand only once.

Sequence of pVHL19 (VCB complex: VHL with Elongin B and Elongin C) (P40337 54-213): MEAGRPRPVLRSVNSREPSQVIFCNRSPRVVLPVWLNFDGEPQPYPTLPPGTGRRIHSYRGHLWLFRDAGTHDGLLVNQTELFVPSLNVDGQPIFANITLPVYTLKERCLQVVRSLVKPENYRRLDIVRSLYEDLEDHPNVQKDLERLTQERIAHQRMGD
Sequence of pVHL19 (VCB complex: VHL with Elongin B and Elongin C) (Q15370 1-104 partner limits assumed): as the sequence (Q15370 1-104 partner limits assumed) above
Sequence of pVHL19 (VCB complex: VHL with Elongin B and Elongin C) (Q15369 17-112 partner limits assumed): as the sequence (Q15369 17-112 partner limits assumed) above
Sequence of VCB complex (P40337 54-213 limits assumed): as the sequence (P40337 54-213) above
Sequence of VCB complex (Q15370 1-104 partner limits assumed): as the sequence (Q15370 1-104 partner limits assumed) above
Sequence of VCB complex (Q15369 17-112 partner limits assumed): as the sequence (Q15369 17-112 partner limits assumed) above

For `Cc1ncsc1-c1ccc(CNC(=O)[C@@H]2C[C@@H](O)CN2C(=O)[C@@H](NC(=O)COCCOCCOCCOCCOCCOCC(=O)N[C@H](C(=O)N2C[C@H](O)C[C@H]2C(=O)NCc2ccc(-c3scnc3C)cc2)C(C)(C)C)C(C)(C)C)cc1` [CM11, N^1,N^20-bis((S)-1-((2S,4R)-4-hydroxy-2-((4-(4-methylthiazol-5-yl)benzyl)carbamoyl)pyrrolidin-1-yl)-3,3-dimethyl-1-oxobutan-2-yl)-3,6,9,12,15,18-hexaoxaicosanediamide], in experiment [1], binding was characterised by a dissociation constant (Kd) of 25 ± 3 nM, the “n (stoichiometry)” value worked out at 0.866 ± 0.003, the ΔG was -10.4 ± 0.1 kcal/mol and the ΔH is -11.3 ± 0.1 kcal/mol. Moreover, in experiment [1], the “α (cooperativity/avidity)” value turned out to be 4 and the “−TΔS” value is -0.9 ± 0.1 kcal/mol. Moreover, the “HIF-dependent luciferase activity relative to DMSO” value in experiment [2] is “no increase in HIF-dependent luciferase activity was detected”. In experiment [3], the “molecular weight of species of shifted peak” value is around 90 kDa and the “shift of VCB peak / ternary complex formation” value was “migrates more quickly”. In experiment [4], the HIF-1α level result is “slight increase” and the “protein levels of Hdy-HIF-1α” value was “detectable albeit low increase”. Moreover, in experiment [5] (ITC against VCB), the “apparent binding enthalpy ΔH” value is -12.3 kcal/mol, the “avidity (cooperativity α) compared to VH032” value is listed as above 18 fold and the “entropic term −TΔS” value amounted to 1.4 kcal/mol. In experiment [5] (ITC, pVHL19), the affinity, expressed as Kd, was 11 ± 2 nM; the ΔG was -10.9 ± 0.1 kcal/mol; the ΔH is -12.3 ± 0.7 kcal/mol; the “α (cooperativity/avidity)” value turned out to be 18. Besides, the “−TΔS” value in experiment [5] (ITC, pVHL19) came out at 1.4 ± 0.8 kcal/mol. The “n (stoichiometry)” value in experiment [5] (ITC, pVHL19, 25° C.) was 0.6 and 0.6 ± 0.01.

The values above are taken from patent publication US11261179B2, “Small molecules” (University of Dundee, priority 2017, dated 2022).
